Experimental data reported in ChEMBL document CHEMBL3045105, “Synthesis and hypoglycemic activity evaluation of rhein amide derivatives” (Med Chem Res, 2013).

Columns and labels:
HepG2 [1] = experiment: Hypoglycemic activity in Homo sapiens (human) HepG2 cells assessed as glucose consumption at 1 mg/l after 24 hr by glucose enzymatic assay (reference value: 1.972 +/-0.071 mmol/l); type: functional
HepG2 [2] = experiment: Ratio of glucose consumption to cytotoxic OD490 absorbance for Homo sapiens (human) HepG2 cells (reference value: 3.438 +/-0.139 no unit)
HepG2 [3] = experiment: Hypoglycemic activity in Homo sapiens (human) HepG2 cells assessed as glucose consumption at 10 mg/l after 24 hr by glucose enzymatic assay (reference value: 1.972 +/-0.071 mmol/l); type: functional
HepG2 [4] = experiment: Cytotoxicity against Homo sapiens (human) HepG2 cells assessed as absorbance at 490 nm by MTT assay (reference value: 0.574 +/-0.019 no unit); type: cell-based; details: hepg2, 10 mg/L

Compound | Activity (HepG2 [1]) [mmol/L] | Ratio (HepG2 [2]) | Activity (HepG2 [3]) [mmol/L] | OD (HepG2 [4])
CC(=O)Oc1cccc2c1C(=O)c1c(OC(C)=O)cc(C(=O)NC3CCCC3)cc1C2=O | 2.151 | 3.916 | 2.256 | 0.577
CC(=O)Oc1cccc2c1C(=O)c1c(OC(C)=O)cc(C(=O)OCc3ccc([N+](=O)[O-])cc3)cc1C2=O | 2.198 | 3.958 | 2.268 | 0.573
CC(C)(C)[Si](C)(C)Oc1cccc2c1C(=O)c1c(O[Si](C)(C)C(C)(C)C)cc(C(=O)NC3CCCC3)cc1C2=O | 2.369 | 4.563 | 2.578 | 0.565
CC(C)(C)[Si](C)(C)Oc1cccc2c1C(=O)c1c(O[Si](C)(C)C(C)(C)C)cc(C(=O)OCc3ccc([N+](=O)[O-])cc3)cc1C2=O | 2.576 | 4.499 | 2.529 | 0.563
CN(C)C(=O)c1cc(O)c2c(c1)C(=O)c1cccc(O)c1C2=O | 2.444 | 4.449 | 2.485 | 0.56
O=C1c2cccc(O)c2C(=O)c2c(O)cc(C(=O)N3CCCC3)cc21 | 2.379 | 4.116 | 2.315 | 0.565
CC(=O)Oc1cccc2c1C(=O)c1c(OC(C)=O)cc(C(=O)N3CCCC3)cc1C2=O | 2.476 | 4.304 | 2.541 | 0.591
CN(C)C(=N)NC(=N)N [METFORMIN] |  | 3.923 | 2.25 | 0.574
